Results reported in patent publication US9642804B2, “Cationic lipids with various head groups for oligonucleotide delivery” (priority 2009, dated 2017).

Key:
[1] = Rhesus monkey in vivo toxicity, serum ALT and AST; design: species or system Macaca mulatta (rhesus) monkey; settings: ApoB siRNA RDV; 3.6 mg/kilogram siRNA intravenous
Experimental: (§1) LNPs utilizing Compounds 9 or 12 in the nominal compositions described above, were evaluated for in vivo efficacy and increases in alanine amino transferases (ALT) and aspartate amino transferase (AST) in male or female Macaca mulatta (rhesus) monkeys. The siRNA targets the mRNA transcript for the ApoB gene (Accession # XM 001097404). […] The RDVs (containing siRNA) in PBS vehicle were administered by intravenous injection in the saphenous vein at an injection rate of 20 mL/minute to a dose level of 3.6 mg/kilogram siRNA. The injection volumes were from 1.9 to 2.1 mL/kilogram and monkeys ranged in weight from 2.5 to 4.5 kilograms. Each RDV or PBS control was administered to two monkeys. At multiple days post dose, 1 mL blood samples were drawn from the femoral artery for serum chemistry analysis. Monkeys were fasted overnight prior to blood draws. Serum ALT and AST analysis were performed on the Siemens Advia 1800 Clinical Chemistry Analyzer utilizing the Siemens alanine aminotransferase (Cat# 03039631) and aspartate aminotransferase (Cat# 03039631) reagents. As a measure of efficacy, LDL-C was monitored as a downstream surrogate marker of ApoB mRNA reduction. At eight days post systemic administration, of RDVs containing Compounds 9 or 12, reduced serum levels of LDL-C to less than 50% of pre-dose levels (FIG. 4). The RDV containing Compound 9 reduced LDL-C levels to a greater extent than the RDV containing Compound 12 (ave.: −63% vs. −53%). ALT and AST were elevated relative to predose values in monkeys treated with both Compounds 9 and 12 RDVs (FIG. 4).

[2] = tested on: cytokines IL-6 and mKC; test: Mouse in vivo cytokine induction 3 hours post injection (plasma, SearchLight array); settings: Luc siRNA RDV; plasma three hours post dose
Experimental: (§2) LNPs utilizing Compound 9 or 12, in the nominal compositions described immediately above, were evaluated for in vivo efficacy and induction of inflammatory cytokines in a luciferase mouse model. The siRNA targets the mRNA transcript for the firefly (Photinus pyralis) luciferase gene (Accession # M15077). […] The in vivo luciferase model employs a transgenic mouse in which the firefly luciferase coding sequence is present in all cells. ROSA26-LoxP-Stop-LoxP-Luc (LSL-Luc) transgenic mice licensed from the Dana Farber Cancer Institute are induced to express the Luciferase gene by first removing the LSL sequence with a recombinant Ad-Cre virus (Vector Biolabs). Due to the organo-tropic nature of the virus, expression is limited to the liver when delivered via tail vein injection. Luciferase expression levels in liver are quantitated by measuring light output, using an IVIS imager (Xenogen) following administration of the luciferin substrate (Caliper Life Sciences). Pre-dose luminescence levels are measured prior to administration of the RDVs. Luciferin in PBS (15 mg/mL) is intraperitoneally (IP) injected in a volume of 150 uL. After a four minute incubation period mice are anesthetized with isoflurane and placed in the IVIS. imager. The RDVs (containing siRNA) in PBS vehicle were tail vein injected in a volume of 0.2 mL. Final dose levels ranged from 0.3 to 3 mg/kg siRNA. PBS vehicle alone was dosed as a control. Three hours post dose, mice were bled retro-orbitally to obtain plasma for cytokine analysis. Mice were imaged 48 hours post dose using the method described above. Changes in luciferin light output directly correlate with luciferase mRNA levels and represent an indirect measure of luciferase siRNA activity. In vivo efficacy results are expressed as % inhibition of luminescence relative to pre-dose luminescence levels. Plasma cytokine levels were determined using the SearchLight multiplexed cytokine chemoluminescent array (Pierce/Thermo). Systemic administration of the luciferase siRNA RDVs decreased luciferase expression in a dose dependant manner. […] Compound 12, (Table 1 and FIG. 2). […] However, average cytokine induction was lower in the animals dosed with the Compound 9 RDV, relative to the Compound 12 RDV.(FIG. 1).

[3] = tested on: mRNA transcript for the ApoB gene; test: Rhesus monkey in vivo efficacy, serum LDL-C as surrogate marker of ApoB mRNA reduction; design: species or system Macaca mulatta (rhesus) monkey; settings: ApoB siRNA RDV; 3.6 mg/kilogram siRNA intravenous; average of two monkeys
Experimental: as §1, with “The RDV containing Compound 9 reduced LDL-C levels to a greater extent than the RDV containing Compound 12 (ave.: −63% vs. −53%). ALT and AST were elevated relative to predose values in monkeys treated with both Compounds 9 and 12 RDVs (FIG. 4).” left out

[4] = Rat in vivo toxicity, serum ALT and AST; design: species or system Sprague-Dawley rat; settings: ApoB siRNA RDV; for LFTs relative to PBS control dosed rats: serum 24 hours after dosing
Experimental: After LNP administration, rats are placed in cages with normal diet and water present. Six hours post dose, food is removed from the cages. Animal necropsy is performed 24 hours after LNP dosing. Rats are anesthetized under isoflurane for 5 minutes, then maintained under anesthesia by placing them in nose cones continuing the delivery of isoflurane until ex-sanguination is completed. Blood is collected from the vena cava using a 23 guage butterfly venipuncture set and aliquoted to serum separator vacutainers for serum chemistry analysis. Punches of the excised caudate liver lobe are taken and placed in RNA Later (Ambion) for mRNA analysis. Preserved liver tissue was homogenized and total RNA isolated using a Qiagen bead mill and the Qiagen miRNA-Easy RNA isolation kit following the manufacturer's instructions. Liver ApoB mRNA levels were determined by quantitative RT-PCR. Message was amplified from purified RNA utilizing a rat ApoB commercial probe set (Applied Biosystems Cat # RN01499054_ml). The PCR reaction was performed on an ABI 7500 instrument with a 96-well Fast Block. The ApoB mRNA level is normalized to the housekeeping PPIB (NM 011149) mRNA. PPIB mRNA levels were determined by RT-PCR using a commercial probe set (Applied Biosytems Cat. No. Mm00478295_ml). Results are expressed as a ratio of ApoB mRNA/PPIB mRNA. All mRNA data is expressed relative to the PBS control dose. Serum ALT and AST analysis were performed on the Siemens Advia 1800 Clinical Chemistry Analyzer utilizing the Siemens alanine aminotransferase (Cat# 03039631) and aspartate aminotransferase (Cat# 03039631) reagents.

[5] = tested on: mRNA transcript for the firefly (Photinus pyralis) luciferase gene; test: Mouse in vivo efficacy, luciferase mouse model (liver bioluminescence, IVIS); settings: for Average % Inhibition of Bioluminescence: LNP (cationic lipid/cholesterol/PEG-DMG 60/38/2) with Luc siRNA, tail vein, 48 hours post dose, relative to pre-dose
Experimental: as §2

[6] = rat serum 24 hours after dosing

Compound: CCCCCCCC/C=C\CCCCCCCCOC[C@@H](COCCCCCCO[C@H]1CC[C@@]2(C)C(=CC[C@@H]3C2CC[C@@]2(C)C3CC[C@@H]2[C@H](C)CCCC(C)C)C1)N(C)C (stereo partly shown) [Compound 9]
- ALT relative to predose values [1]: elevated
- AST relative to predose values [1]: elevated
- Elevation of ALT, comparison of the RDVs [1]: approximately equivalent
- Average cytokine induction, Compound 9 RDV relative to Compound 12 RDV [2]: lower
- Mouse plasma level of IL-6 relative to the PBS control [2]: significantly increased
- Mouse plasma level of mKC relative to the PBS control [2]: significantly increased
- Reduction of LDL-C levels (ave.) [3]: −63%
- ALT levels, comparison of the RDVs [4, 6]: increased to a greater extent
- LFTs relative to PBS control dosed rats [4]: An increase in LFTs
- Average % Inhibition of Bioluminescence ([5]; 0.1 mg Kg^−1): 80%
- Average % Inhibition of Bioluminescence ([5]; 0.3 mg Kg^−1): 89%
- Average % Inhibition of Bioluminescence ([5]; 1.0 mg Kg^−1): 91%
- Efficacy in decreasing luciferase expression, comparison of the RDVs ([5]; Luc siRNA RDV, Compound 9 RDV versus Compound 12 RDV): Greater efficacy

Compound: CCCCC/C=C\C/C=C\CCCCCCCCOCC(CN(C)C)OCCCCCCCCO[C@H]1CC[C@@]2(C)C(=CC[C@H]3[C@@H]4CC[C@H]([C@H](C)CCCC(C)C)[C@@]4(C)CC[C@@H]32)C1 (stereo partly shown) [Compound 12, S-Octyl CLinDMA, reference compound]
- ALT relative to predose values [1]: elevated
- AST relative to predose values [1]: elevated
- Elevation of ALT, comparison of the RDVs [1]: approximately equivalent
- Elevation of AST, comparison of the RDVs [1]: elevated to a markedly higher level
- Mouse plasma level of IL-6 relative to the PBS control [2]: significantly increased
- Mouse plasma level of mKC relative to the PBS control [2]: significantly increased
- Reduction of LDL-C levels (ave.) [3]: −53%
- AST levels, comparison of the RDVs [4, 6]: increased more strongly
- LFTs relative to PBS control dosed rats [4]: An increase in LFTs
- Average % Inhibition of Bioluminescence ([5]; 0.1 mg Kg^−1): 54%
- Average % Inhibition of Bioluminescence ([5]; 0.3 mg Kg^−1): 74%
- Average % Inhibition of Bioluminescence ([5]; 1.0 mg Kg^−1): 88%
